In the NIST ThermoML archive (doi:10.1016/j.tca.2016.05.007):
Numbers after ± are expanded uncertainties.

Experiment: molar heat capacity at constant pressure
Conditions: 101.33 kPa, Small (less than 1 g) adiabatic calorimetry

COc1ccc(C2(c3ccc(OC)c(C)c3)OC(=O)c3ccccc32)cc1C [3,3-bis(4-methoxy-3-methylphenyl)-1(3H)-isobenzofuranone]
Conditions	molar heat capacity at constant pressure [J/K/mol]
5.802 K, Glass	2.967 ± 0.084
6.011 K, Crystal	1.658 ± 0.053
6.232 K, Glass	3.526 ± 0.096
6.486 K, Crystal	2.176 ± 0.065
6.689 K, Glass	4.234 ± 0.11
6.977 K, Crystal	2.797 ± 0.078
7.179 K, Glass	5.003 ± 0.13
7.498 K, Crystal	3.461 ± 0.093
7.715 K, Glass	5.872 ± 0.15
8.061 K, Crystal	4.249 ± 0.11
8.282 K, Glass	6.885 ± 0.17
8.65 K, Crystal	5.21 ± 0.13
8.874 K, Glass	8.044 ± 0.2
9.274 K, Crystal	6.207 ± 0.15
9.483 K, Glass	9.187 ± 0.22
9.939 K, Crystal	7.418 ± 0.13
10.1 K, Glass	10.44 ± 0.17
10.63 K, Crystal	8.764 ± 0.15
10.73 K, Glass	11.74 ± 0.19
11.34 K, Crystal	10.21 ± 0.17
11.35 K, Glass	13.13 ± 0.21
11.98 K, Glass	14.45 ± 0.23
12.03 K, Crystal	11.58 ± 0.18
12.62 K, Glass	15.86 ± 0.24
12.71 K, Crystal	13.08 ± 0.2
13.28 K, Glass	17.41 ± 0.27
13.41 K, Crystal	14.58 ± 0.23
13.96 K, Glass	18.93 ± 0.28
14.13 K, Crystal	16.23 ± 0.25
14.66 K, Glass	20.58 ± 0.3
14.89 K, Crystal	18.08 ± 0.27
15.39 K, Glass	22.28 ± 0.33
15.68 K, Crystal	19.91 ± 0.29
16.15 K, Glass	24.12 ± 0.35
16.49 K, Crystal	21.8 ± 0.31
16.94 K, Glass	25.94 ± 0.37
17.04 K, Crystal	22.93 ± 0.33
17.66 K, Glass	27.62 ± 0.39
17.91 K, Crystal	25.25 ± 0.35
18.49 K, Glass	29.63 ± 0.41
18.78 K, Crystal	27.27 ± 0.38
19.34 K, Glass	31.77 ± 0.43
19.67 K, Crystal	29.41 ± 0.4
20.21 K, Glass	33.84 ± 0.45
20.58 K, Crystal	31.37 ± 0.42
21.11 K, Glass	35.96 ± 0.48
21.5 K, Crystal	33.68 ± 0.44
22.03 K, Glass	38.09 ± 0.5
22.45 K, Crystal	35.73 ± 0.46
23 K, Glass	40.41 ± 0.52
23.44 K, Crystal	38.11 ± 0.49
24.02 K, Glass	42.79 ± 0.54
24.48 K, Crystal	40.68 ± 0.51
25.08 K, Glass	45.25 ± 0.56
25.54 K, Crystal	43.24 ± 0.54
26.16 K, Glass	47.65 ± 0.58
26.63 K, Crystal	45.57 ± 0.56
27.26 K, Glass	50.09 ± 0.6
27.74 K, Crystal	48.13 ± 0.58
28.38 K, Glass	52.99 ± 0.63
28.86 K, Crystal	51.61 ± 0.61
29.5 K, Glass	56.69 ± 0.66
29.99 K, Crystal	54.09 ± 0.35
30.63 K, Glass	57.45 ± 0.3
31.12 K, Crystal	55.63 ± 0.29
31.76 K, Glass	60.08 ± 0.31
32.25 K, Crystal	58.38 ± 0.31
32.9 K, Glass	63.09 ± 0.33
33.39 K, Crystal	61.18 ± 0.32
34.06 K, Glass	65.62 ± 0.34
34.56 K, Crystal	63.78 ± 0.33
35.25 K, Glass	68.43 ± 0.34
35.74 K, Crystal	66.5 ± 0.34
36.45 K, Glass	70.84 ± 0.35
36.95 K, Crystal	69.15 ± 0.35
37.67 K, Glass	73.54 ± 0.36
38.17 K, Crystal	71.7 ± 0.36
38.9 K, Glass	75.9 ± 0.37
39.4 K, Crystal	74.01 ± 0.37
40.15 K, Glass	78.39 ± 0.38
40.66 K, Crystal	76.39 ± 0.38
41.41 K, Glass	80.76 ± 0.39
41.94 K, Crystal	79 ± 0.39
42.68 K, Glass	83.53 ± 0.4
43.23 K, Crystal	81.44 ± 0.4
43.93 K, Glass	85.97 ± 0.41
44.51 K, Crystal	83.92 ± 0.41
45.19 K, Glass	88.07 ± 0.42
45.78 K, Crystal	86.54 ± 0.42
46.45 K, Glass	90.22 ± 0.43
47.06 K, Crystal	89.06 ± 0.43
47.71 K, Glass	93.04 ± 0.44
48.33 K, Crystal	91.12 ± 0.43
48.97 K, Glass	95.25 ± 0.45
49.6 K, Crystal	94.6 ± 0.45
50.23 K, Glass	98.01 ± 0.46
50.87 K, Crystal	97.15 ± 0.46
51.48 K, Glass	100.37 ± 0.47
52.14 K, Crystal	99.73 ± 0.47
52.74 K, Glass	103.27 ± 0.48
53.41 K, Crystal	102.49 ± 0.48
54 K, Glass	105.75 ± 0.49
54.68 K, Crystal	105 ± 0.49
55.27 K, Glass	108.28 ± 0.5
55.95 K, Crystal	107.6 ± 0.5
56.53 K, Glass	110.76 ± 0.51
57.22 K, Crystal	109.68 ± 0.51
57.79 K, Glass	113.22 ± 0.52
58.5 K, Crystal	112.22 ± 0.52
59.06 K, Glass	115.64 ± 0.53
59.77 K, Crystal	114.59 ± 0.53
60.33 K, Glass	117.82 ± 0.54
61.05 K, Crystal	116.87 ± 0.54
61.6 K, Glass	120.17 ± 0.55
62.33 K, Crystal	119.39 ± 0.55
62.87 K, Glass	122.44 ± 0.56
63.61 K, Crystal	121.85 ± 0.56
64.15 K, Glass	124.78 ± 0.57
64.89 K, Crystal	123.86 ± 0.57
65.43 K, Glass	126.76 ± 0.58
66.18 K, Crystal	125.9 ± 0.57
66.72 K, Glass	129.06 ± 0.59
67.47 K, Crystal	128.08 ± 0.58
68.01 K, Glass	131.4 ± 0.6
68.77 K, Crystal	130.54 ± 0.59
69.3 K, Glass	133.63 ± 0.61
70.07 K, Crystal	132.99 ± 0.6
70.6 K, Glass	136.05 ± 0.62
71.38 K, Crystal	135.25 ± 0.61
71.91 K, Glass	138.21 ± 0.62
72.69 K, Crystal	137.49 ± 0.62
73.22 K, Glass	140.28 ± 0.63
74.01 K, Crystal	139.48 ± 0.63
74.59 K, Glass	142.77 ± 0.64
75.33 K, Crystal	141.75 ± 0.64
76.03 K, Glass	145.08 ± 0.65
76.66 K, Crystal	144.1 ± 0.65
77.47 K, Glass	147.57 ± 0.66
77.99 K, Crystal	146.27 ± 0.66
78.91 K, Glass	149.7 ± 0.67
79.33 K, Crystal	148.82 ± 0.67
80.36 K, Glass	152.24 ± 0.68
80.67 K, Crystal	150.88 ± 0.68
81.81 K, Glass	154.61 ± 0.69
82.09 K, Crystal	152.82 ± 0.68
83.27 K, Glass	156.85 ± 0.7
83.57 K, Crystal	155.34 ± 0.69
84.73 K, Glass	159.35 ± 0.71
85.06 K, Crystal	157.59 ± 0.7
86.19 K, Glass	161.67 ± 0.72
86.55 K, Crystal	160.21 ± 0.71
87.66 K, Glass	164.03 ± 0.73
88.04 K, Crystal	162.51 ± 0.72
89.14 K, Glass	166.13 ± 0.74
89.54 K, Crystal	164.72 ± 0.73
90.62 K, Glass	168.74 ± 0.71
91.05 K, Crystal	167.41 ± 0.7
92.11 K, Glass	171.18 ± 0.71
92.56 K, Crystal	169.71 ± 0.71
93.61 K, Glass	173.56 ± 0.72
94.08 K, Crystal	172.05 ± 0.72
95.11 K, Glass	176.28 ± 0.73
95.6 K, Crystal	174.26 ± 0.72
96.62 K, Glass	178.27 ± 0.74
97.14 K, Crystal	176.64 ± 0.73
98.14 K, Glass	180.03 ± 0.74
98.67 K, Crystal	178.97 ± 0.74
99.67 K, Glass	182.72 ± 0.75
100.22 K, Crystal	181.39 ± 0.75
101.2 K, Glass	185 ± 0.76
101.77 K, Crystal	183.97 ± 0.76
102.74 K, Glass	186.83 ± 0.77
103.33 K, Crystal	186.52 ± 0.77
104.29 K, Glass	189.85 ± 0.78
104.9 K, Crystal	188.69 ± 0.77
105.85 K, Glass	192.15 ± 0.79
106.48 K, Crystal	190.79 ± 0.78
107.42 K, Glass	194.15 ± 0.79
108.07 K, Crystal	193.1 ± 0.79
109 K, Glass	196.63 ± 0.8
109.72 K, Crystal	195.77 ± 0.8
110.58 K, Glass	199.21 ± 0.81
111.45 K, Crystal	198.35 ± 0.81
112.18 K, Glass	201.62 ± 0.82
113.19 K, Crystal	200.89 ± 0.82
113.78 K, Glass	204.03 ± 0.83
114.95 K, Crystal	203.39 ± 0.82
115.4 K, Glass	206.27 ± 0.83
116.73 K, Crystal	205.7 ± 0.83
117.1 K, Glass	208.63 ± 0.84
118.52 K, Crystal	209.32 ± 0.85
118.89 K, Glass	211.16 ± 0.85
120.34 K, Crystal	211.71 ± 0.85
120.69 K, Glass	213.89 ± 0.86
